Experimental data: US20070203126A1, “Synergistic Mixtures of O-Phenylphenol and Dazomet” (priority 2002, published 2007)
Read-outs that look alike come from different tables or passages of the source.

Experiments:
[1] = tested on: artificial bacterial consortium containing approximately equal numbers of six bacterial strains; assay: bacterial growth inhibition dose protocol in synthetic white water (O.D. 650 nm, 4 hours); format: cell-based; details: for Synergy Index: Dazomet & NaOPP, end point 50% inhibition, SI<1 synergism
Description: The actives were evaluated in synthetic white water with pH values of 5.5 and 8.0. The materials were tested against an artificial bacterial consortium containing approximately equal numbers of six bacterial strains. […] Two of the strains were Kiebsiella pneumoia (ATCC 13883) and Pseudomonas aeruginosa (ATCC 15442). The other four strains were isolated from papermill systems and have been identified as Curtobacterium flaccumfaciens, Burkhlderia cepacia, Bacillus maroccanus, and Pseudomonas glethei. Each strain was inoculated at 37° C. overnight, then suspended in sterile saline. Equal volumes of each strain were then combined to prepare the consortium. The bacterial consortium was distributed into the wells of a microtiter plate in the presence or absence of various concentrations of the active materials. The microtiter plates were incubated at 37° C. Optical density (O.D.) readings at 650 nm were taken initially (t0) and after time 4 hours (t4) of incubation.
The raw data was converted to “bacterial growth inhibition percentages” according to the following formula: % Inhibition=[(a−b)÷a]·100 […]
a=(O.D. of control at tn)−(O.D. of control at t0) b=(O.D. of treatment at tn)−(O.D. of treatment at t0)
The inhibition values can be plotted versus dosage for each active and the particular blend. […] The synergism index (SI) was calculated by the equations described by F. C. Kull, P. C. Eisman, H. D. Sylwestrowicz, and R. L. Mayer (1961), Applied Microbiology 9, 538-541. The values are based on the amount needed to achieve a specified end point. […] Synergy Index (SI)=(QA÷Qa)+(QB÷Qb) […]
QA=quantity of compound A in mixture, producing the end point
Qa=quantity of compound A1 acting alone, producing the end point
QB=quantity of compound B in mixture, producing the end point
Qb=quantity of compound B1 acting alone, producing the end point
If SI is less than 1, synergism exists; if SI is greater than 1, antagonism exists, if SI is equal to 1, an additive effect exists.

[2] = tested on: mixed inoculum of bacteria; assay: microtiter plate MIC and combination (K value) test in nutrient broth; format: cell-based; details: 24 hours, read-out: MIC RESULTS against mixed inoculum of bacteria
Description: EQUIPMENT used for the experiment are as follows: • 1. Incubator capable of maintaining a variable temperature range (25-45 C.); • 2. Samples of each biocide or test compound to be examined; • 3. Microtiter plates—96 well with lid, sterile; • 4. 8-12 channel micropipetting device capable of pipetting 0-250 ul volumes; • 5. Micropipette tips capable of holding up to 250 ul volumes; • 6. Sterile microbiological culture broth. Trypticase Soy Broth (TSB) or Nutrient Broth (NB) is recommended for bacteria and Sabouraud Maltose Broth (SMB) or Sabouraud Dextrose Broth (SDB) is recommended for yeasts and molds. In the case of this particular study the microbiological culture medium was Nutrient Broth at pH 7.0, 8.0 and 9.0; • 7. Pure cultures of microorganisms of choice grown on appropriate agar medium; • 8. Sterile distilled water; • 9. 100 mL volumetric flasks (one for each biocide to be tested); • 10. Sterile 10 mL tubes of Phosphate buffer (Butterfield's buffer pH 7.2+/−0.2). Contains purified water, monobasic potassium phosphate and sodium hydroxide for pH adjustment; • 11. Sterile cotton swabs; • 12. 0.5 MacFarland Turbidity Standard;
Preparation of Bacterial Inocula
The day before testing, perform a streak plate of each organism to be tested on an appropriate agar medium (Trypticase Soy Agar). Organisms tested in this study were.
Wild strain bacteria isolated from previously contaminated industrial systems and which were identified as: Pseudomonas sp., Escherchia coli, Enterobacter sp., Alcaligenes sp. and Alcaligenes faecalis. On the day of the test, use a sterile cotton swab to harvest some of the growth. Place swab into a tube containing 10 mL sterile phosphate buffer. Compare and adjust the turbidity of the organisms in the tube to 1×10^8 cfu/mL using a 0.5 MacFarland Turbidity Standard. Dilute the 10 mL tube into 90 mL of sterile 2× nutrient broth at pH 7.0, 8.0 and 9.0.
The following procedure was used: • 1. Design the layout of the microtiter plates based on the number of organisms to test and the number of biocides and desired concentrations to test. A separate microtiter plate is required for testing each biocide alone, in addition to the combination microtiter plate. • 2. Prepare a working stock solution of each biocide to be tested. For the combination microtiter plate, the working stock solution of Biocide A will be 8× the concentration desired in the first well of the combination microtiter plate. The working stock solution of Biocide B will be 4× the concentration desired in the first well of the combination microtiter plate. For the alone microtiter plates, the working stock solutions of Biocide A and Biocide B will both be 4× the concentration desired in the first well of the single biocide microtiter plates.
Tetrahydro-3-5-dimethyl-2H-1,3-5-thiadiazine-2-thione (Dazomet): (For combination plates) A solution of this product, which is 99% active, was made as follows: […]=8000 ppm active=8000/0.99=8080 ppm, 0.8 g into 100 mL MeOH and sterile diH2O.
o-Phenylphenol (OPP): (For combination plates) Make a solution of this product which is 99% active, 4×125=500 ppm active=500/0.99=505 ppm, 0.05 g into 100 mL MeOH and sterile diH2O. Level to test is 125 ppm.
(For alone plates) A solution was made as follows: 4×4000=16000 ppm active=16000/0.99=16161 ppm, 1.6 into 100 mL MeOH and sterile diH2O. Levels to test are: 4000 ppm, 2000 ppm, 1000 ppm, 500 ppm, 250 ppm, 125 ppm, 62.5 ppm, 31.2 ppm, 15.6 ppm, 7.8 ppm, 3.9 ppm, 1.95 ppm • 3. Place 50 ul of sterile distilled water in all of the rows in columns 1 through 10, and 100 ul of sterile distilled water in all of the rows in columns 11 and 12 of the 96 well combination microtiter plate. Place 100 ul of sterile distilled water in each well of the 96 well alone microtiter plates. • 4. For the combination microtiter plate, place 50 ul of the Biocide A stock solution into all of the rows in column 1 of the combination microtiter plate. • 5. […]

CN1CSC(=S)N(C)C1 [Dazomet, tetrahydo-3,5-dimethyl-2H-1-3-5-thiadiazine-2-thione]
Synergy Index ([1]; pH 5.5): 1.00 | ppm Dazomet ([1]; pH 5.5, Dazomet alone or in blend with NaOPP giving 50% inhibition, ppm active): 6.176 ppm | Synergy Index ([1]; pH 8.0): 1.00 | Ppm Dazomet ([1]; pH 8.0, Dazomet alone or in blend with NaOPP giving 50% inhibition, ppm active): 5.34 ppm | MIC ([2]; pH 7.0, biocide alone): 2000 µg/mL | MIC ([2]; pH 8.0, biocide alone): 2000 µg/mL | MIC ([2]; pH 9.0, biocide alone): 4000 µg/mL

Oc1ccccc1-c1ccccc1 [OPP, o-Phenylphenol]
MIC ([2]; pH 7.0, biocide alone): 2000 µg/mL | MIC ([2]; pH 8.0, biocide alone): 1000 µg/mL | MIC ([2]; pH 9.0, biocide alone): 500 µg/mL
